# Several values for one entry are separate records, joined by “and”; a condition that tells them apart may be missing. Equal entries are not always repeated. Where two headings read alike, the source gives them in different places.
# Legend:
# Pyricularia oryzae [1] = experiment: whole plant or invertebrate; type: in vivo; settings: rice seedlings, spray before inoculation; for pest or weed control at 0.01 ppm: read-out: Control Efficacy, spray concentration 0.01 ppm; for pest or weed control at 1 ppm: read-out: Control Efficacy, spray concentration 1 ppm; for pest or weed control at 25 ppm: read-out: Control Efficacy, spray concentration 25 ppm; for pest or weed control at 100 ppm: read-out: Control Efficacy, spray concentration 100 ppm
# Pyricularia oryzae [2] = type: in vivo; settings: spray after lesions on rice seedlings, two natural infections
molecule,measurement,setting,value
CC(C1CC1)C(O)(Cn1cncn1)c1ccc(Cl)cc1 (centres unmarked) [Ciproconazole],Control Efficacy,Pyricularia oryzae [1]; spray concentration 10 ppm,11
CC1COC(Cn2cncn2)(c2ccc(Oc3ccc(Cl)cc3)cc2Cl)O1 (centres unmarked) [Diphenoconazole],Control Efficacy,Pyricularia oryzae [1]; spray concentration 50 ppm,62
same,Control Efficacy,Pyricularia oryzae [1]; spray concentration 100 ppm,86
CO/N=C(/C1=NOCCO1)c1ccccc1Oc1ncnc(Oc2ccccc2Cl)c1F [Fluoxastrobin],pest or weed control at 0.01 ppm,Pyricularia oryzae [1]; Pyricularia oryzae,22%
same,pest or weed control at 1 ppm,Pyricularia oryzae [1]; Pyricularia oryzae,93%
CCCCC(O)(Cn1cncn1)c1ccc(Cl)cc1Cl (centres unmarked) [Hexaconazole],pest or weed control at 25 ppm,Pyricularia oryzae [1]; Pyricularia oryzae,55%
same,pest or weed control at 100 ppm,Pyricularia oryzae [1]; Pyricularia oryzae,86%
Cc1nc2c(F)c(F)ccc2cc1Oc1cccc(F)c1C(C)(C)O [Ipflufenoquin],Control Efficacy,Pyricularia oryzae [1]; spray concentration 0.01 ppm,0
same,Control Efficacy,Pyricularia oryzae [1]; spray concentration 0.1 ppm,76
CNC(=O)C(OC)c1ccccc1COc1cc(C)ccc1C (centres unmarked) [Mandestrobin],Control Efficacy,Pyricularia oryzae [1]; spray concentration 0.1 ppm,0
CC(O)(Cn1cncn1)c1ccc(Oc2ccc(Cl)cc2)cc1C(F)(F)F (centres unmarked) [Mefentrifluconazole],Control Efficacy,Pyricularia oryzae [1]; spray concentration 25 ppm,35
same,Control Efficacy,Pyricularia oryzae [1]; spray concentration 100 ppm,44
Cc1nn(C)c(F)c1C(=O)Nc1ccccc1C(C)CC(C)C (centres unmarked) [Penflufen],Control Efficacy,Pyricularia oryzae [1]; spray concentration 1 ppm,11
CO/C=C(/C(=O)OC)c1ccccc1COc1cccc(C(F)(F)F)n1 [Picoxystrobin],Control Efficacy,Pyricularia oryzae [1]; spray concentration 0.01 ppm,22
same,Control Efficacy,Pyricularia oryzae [1]; spray concentration 0.1 ppm,68
CCCC1COC(Cn2cncn2)(c2ccc(Cl)cc2Cl)O1 (centres unmarked) [Propiconazole],pest or weed control at 100 ppm,Pyricularia oryzae [1]; Pyricularia oryzae,72%
same,Control Efficacy,Pyricularia oryzae [2]; spray concentration 52 ppm,55
OC(Cc1ccccc1Cl)(Cn1nc[nH]c1=S)C1(Cl)CC1 (centres unmarked) [Prothioconazole],pest or weed control at 1 ppm,Pyricularia oryzae [1]; Pyricularia oryzae,39%
same,pest or weed control at 25 ppm,Pyricularia oryzae [1]; Pyricularia oryzae,82%
same,pest or weed control at 100 ppm,Pyricularia oryzae [1]; Pyricularia oryzae,95%
COC(=O)N(OC)c1ccccc1COc1ccn(-c2ccc(Cl)cc2)n1 [Pyraclostrobin],pest or weed control at 0.01 ppm,Pyricularia oryzae [1]; Pyricularia oryzae,44%
same,pest or weed control at 0.1 ppm,"Pyricularia oryzae [1]; Pyricularia oryzae, read-out: Control Efficacy, spray concentration 0.1 ppm",64%
O=C(Nc1ccccc1-c1ccc(F)c(F)c1)c1nccnc1C(F)(F)F [Pyraziflumid],Control Efficacy,Pyricularia oryzae [1]; spray concentration 10 ppm,0
same,Control Efficacy,Pyricularia oryzae [1]; spray concentration 100 ppm,56
O=C1CCc2cccc3c2N1CC3 [Pyroquilon],pest or weed control at 100 ppm,Pyricularia oryzae [1]; Pyricularia oryzae,22%
CC(C)(C)C(O)(CCc1ccc(Cl)cc1)Cn1cncn1 (centres unmarked) [Tebuconazole],pest or weed control at 10 ppm,"Pyricularia oryzae [1]; Pyricularia oryzae, read-out: Control Efficacy, spray concentration 10 ppm",58%
same,Control Efficacy,Pyricularia oryzae [2]; spray concentration 52 ppm,63
CC(=O)Oc1c(C)c(C)nc2c(F)cc(C(C)(C)C)cc12 [Tebufloquin],Control Efficacy,Pyricularia oryzae [1]; spray concentration 10 ppm,84 and 76 and 86 and 51 and 48
same,Control Efficacy,Pyricularia oryzae [1]; spray concentration 20 ppm,97 and 90 and 70
same,Control Efficacy,"Pyricularia oryzae [2]; spray concentration 83 ppm, lesions on uppermost unfolded leaf of 50 seedlings",80 and 81
CON=C(C(=O)OC)c1ccccc1CON=C(C)c1cccc(C(F)(F)F)c1 [Trifloxystrobin],pest or weed control at 0.01 ppm,Pyricularia oryzae [1]; Pyricularia oryzae,75%
Inpyrfluxam,Control Efficacy,Pyricularia oryzae [1]; spray concentration 100 ppm,74
